Legend:
Assay in all cases: PathHunter β-arrestin assay
Format in all cases: cell-based
[1] = target: T1, PTGIR (Homo sapiens, UniProt P43119); settings: screen, control agonist; CHO, 37C, 2HR
T1 construct: purchased Eurofins DiscoverX (PathHunter gpcrMAX)

[2] = target: T2, P2RY1 (Homo sapiens, UniProt P47900); settings: screen, control agonist; U2OS, RT, 2HR
T2 construct: purchased Eurofins DiscoverX (PathHunter gpcrMAX)

[3] = target: T3, P2RY12 (Homo sapiens, UniProt Q9H244); settings: screen, control agonist; CHO, RT, 2HR
T3 construct: purchased Eurofins DiscoverX (PathHunter gpcrMAX)
T3 sequence (Q9H244 whole entry, one chain of several): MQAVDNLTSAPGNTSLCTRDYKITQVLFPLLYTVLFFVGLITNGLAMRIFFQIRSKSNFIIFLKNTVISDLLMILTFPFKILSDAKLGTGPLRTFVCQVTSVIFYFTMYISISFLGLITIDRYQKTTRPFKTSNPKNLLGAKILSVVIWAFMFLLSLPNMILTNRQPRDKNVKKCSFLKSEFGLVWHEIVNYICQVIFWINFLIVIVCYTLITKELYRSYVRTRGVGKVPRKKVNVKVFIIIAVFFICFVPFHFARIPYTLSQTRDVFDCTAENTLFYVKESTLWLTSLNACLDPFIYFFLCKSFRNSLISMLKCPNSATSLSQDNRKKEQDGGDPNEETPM

[4] = target: T4, OXER1 (Homo sapiens, UniProt Q8TDS5); settings: screen, control agonist; CHO, RT, 2HR
T4 construct: purchased Eurofins DiscoverX (PathHunter gpcrMAX)
T4 sequence (Q8TDS5 whole entry): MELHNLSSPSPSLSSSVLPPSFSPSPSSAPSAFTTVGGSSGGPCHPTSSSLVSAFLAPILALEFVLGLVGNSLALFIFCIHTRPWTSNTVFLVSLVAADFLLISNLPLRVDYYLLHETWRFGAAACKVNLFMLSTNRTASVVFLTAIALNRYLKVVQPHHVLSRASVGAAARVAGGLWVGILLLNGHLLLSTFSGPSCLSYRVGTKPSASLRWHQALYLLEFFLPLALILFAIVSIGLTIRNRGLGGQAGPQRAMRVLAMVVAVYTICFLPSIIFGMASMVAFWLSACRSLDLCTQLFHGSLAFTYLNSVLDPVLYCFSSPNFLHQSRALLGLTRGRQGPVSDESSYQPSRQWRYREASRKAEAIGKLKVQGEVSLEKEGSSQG

[5] = target: T5, P2RY11 (Homo sapiens, UniProt Q96G91); settings: screen, control agonist; CHO, 37C, 2HR
T5 construct: purchased Eurofins DiscoverX (PathHunter gpcrMAX)
T5 sequence (Q96G91 whole entry, one chain of several): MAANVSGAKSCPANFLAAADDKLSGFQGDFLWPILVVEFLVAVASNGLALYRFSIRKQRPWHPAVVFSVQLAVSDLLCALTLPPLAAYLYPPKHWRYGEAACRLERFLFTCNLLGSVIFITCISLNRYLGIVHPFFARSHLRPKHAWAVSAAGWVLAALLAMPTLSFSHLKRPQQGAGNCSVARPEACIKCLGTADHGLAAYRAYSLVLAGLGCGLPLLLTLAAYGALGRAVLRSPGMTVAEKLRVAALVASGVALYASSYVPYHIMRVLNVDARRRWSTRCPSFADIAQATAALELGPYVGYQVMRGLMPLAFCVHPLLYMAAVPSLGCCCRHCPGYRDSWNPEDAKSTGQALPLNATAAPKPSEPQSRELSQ

[6] = target: T6, TBXA2R (Homo sapiens, UniProt P21731); settings: screen, control agonist; U2OS, 37C, 2HR
T6 construct: purchased Eurofins DiscoverX (PathHunter gpcrMAX)
T6 sequence (P21731 whole entry): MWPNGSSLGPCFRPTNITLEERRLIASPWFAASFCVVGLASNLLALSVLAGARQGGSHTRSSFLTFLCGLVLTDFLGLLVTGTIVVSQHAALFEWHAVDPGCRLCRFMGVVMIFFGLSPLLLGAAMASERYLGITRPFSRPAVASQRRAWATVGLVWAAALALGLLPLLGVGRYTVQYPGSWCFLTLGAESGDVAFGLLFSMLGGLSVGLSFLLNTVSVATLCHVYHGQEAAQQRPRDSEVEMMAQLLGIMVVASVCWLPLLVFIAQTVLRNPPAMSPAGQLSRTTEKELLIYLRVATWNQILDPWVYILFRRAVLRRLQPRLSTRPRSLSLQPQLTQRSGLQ

[7] = target: T7, PTAFR (Homo sapiens, UniProt P25105); settings: screen, control agonist; CHO, 37C, 2HR
T7 construct: purchased Eurofins DiscoverX (PathHunter gpcrMAX)
T7 sequence (P25105 whole entry): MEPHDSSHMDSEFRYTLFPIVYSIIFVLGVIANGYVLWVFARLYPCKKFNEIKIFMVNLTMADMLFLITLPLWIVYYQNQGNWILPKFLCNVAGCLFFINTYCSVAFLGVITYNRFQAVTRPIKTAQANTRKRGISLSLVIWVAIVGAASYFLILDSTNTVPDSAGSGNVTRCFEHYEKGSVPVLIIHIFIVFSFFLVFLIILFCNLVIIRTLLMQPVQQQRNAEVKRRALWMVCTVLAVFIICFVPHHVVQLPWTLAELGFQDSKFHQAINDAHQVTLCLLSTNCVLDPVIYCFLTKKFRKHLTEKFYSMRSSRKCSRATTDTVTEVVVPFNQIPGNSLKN

[8] = target: PTGER4 (Homo sapiens, UniProt P35408); settings: control agonist
PTGER4, sequence (P35408 whole entry): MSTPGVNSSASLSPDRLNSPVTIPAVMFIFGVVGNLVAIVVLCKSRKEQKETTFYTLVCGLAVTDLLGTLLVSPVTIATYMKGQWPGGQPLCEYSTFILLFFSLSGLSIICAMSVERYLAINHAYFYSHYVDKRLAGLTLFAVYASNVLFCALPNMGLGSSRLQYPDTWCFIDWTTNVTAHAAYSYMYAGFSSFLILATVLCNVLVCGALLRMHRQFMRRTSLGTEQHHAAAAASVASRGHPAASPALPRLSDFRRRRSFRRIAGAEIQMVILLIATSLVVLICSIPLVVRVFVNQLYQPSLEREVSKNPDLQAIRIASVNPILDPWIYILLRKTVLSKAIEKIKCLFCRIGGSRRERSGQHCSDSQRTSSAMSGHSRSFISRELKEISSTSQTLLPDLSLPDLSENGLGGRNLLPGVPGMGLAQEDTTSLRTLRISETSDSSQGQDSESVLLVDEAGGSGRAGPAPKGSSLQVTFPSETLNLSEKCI
Description: (§1) Follow up experiments were prioritized based on the difference between S/N and CoV. Targets with a >5-fold difference between S/N and CoV were investigated for their potential contribution to the AMB-FUBINACA toxidrome with 10-point concentration-response curves generated in technical replicate (range 1.5–30 μM) using the EC80 of the relevant agonist, where applicable in antagonist mode. Simultaneous agonist and antagonist curves were run in parallel to ensure reliability of the assay (see Supplementary Table 2), with both RC50 and signal to background aligning with historical averages, and Z' >0.5. RC50 was estimated using a four-parameter fit (CBIS Data Analysis Suite, ChemInnovation, San Diego, CA) on normalized data.

[9] = target: T8, PTGER2 (Homo sapiens, UniProt P43116); settings: screen, control agonist; CHO, 37C, 2HR
T8 construct: purchased Eurofins DiscoverX (PathHunter gpcrMAX)
T8 sequence (P43116 whole entry): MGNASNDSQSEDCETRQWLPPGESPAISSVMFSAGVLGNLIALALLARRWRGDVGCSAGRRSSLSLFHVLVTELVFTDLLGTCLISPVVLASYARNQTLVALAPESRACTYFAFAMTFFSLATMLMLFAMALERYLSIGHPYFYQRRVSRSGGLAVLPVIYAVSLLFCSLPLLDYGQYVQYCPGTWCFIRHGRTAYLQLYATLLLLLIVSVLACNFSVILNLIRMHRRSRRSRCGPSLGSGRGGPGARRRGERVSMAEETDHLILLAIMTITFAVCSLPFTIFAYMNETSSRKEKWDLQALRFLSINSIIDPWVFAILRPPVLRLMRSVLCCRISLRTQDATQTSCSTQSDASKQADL

[10] = target: P2RY6 (Homo sapiens, UniProt Q15077); settings: screen, control agonist; CHO, 37C, 2HR
P2RY6, sequence (Q15077 whole entry): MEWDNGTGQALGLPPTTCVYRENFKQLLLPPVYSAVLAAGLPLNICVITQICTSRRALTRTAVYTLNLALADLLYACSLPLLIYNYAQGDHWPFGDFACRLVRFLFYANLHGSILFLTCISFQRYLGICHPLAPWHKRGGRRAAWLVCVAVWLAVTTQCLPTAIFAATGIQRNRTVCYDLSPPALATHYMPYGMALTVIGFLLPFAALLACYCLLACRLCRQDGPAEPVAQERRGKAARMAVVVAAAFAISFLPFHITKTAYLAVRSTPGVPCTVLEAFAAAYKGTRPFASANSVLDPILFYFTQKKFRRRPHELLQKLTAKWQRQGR
Description: as §1

[11] = target: T9, P2RY2 (Homo sapiens, UniProt P41231); settings: screen, control agonist; U2OS, 37C, 2HR
T9 construct: purchased Eurofins DiscoverX (PathHunter gpcrMAX)
T9 sequence (P41231 whole entry): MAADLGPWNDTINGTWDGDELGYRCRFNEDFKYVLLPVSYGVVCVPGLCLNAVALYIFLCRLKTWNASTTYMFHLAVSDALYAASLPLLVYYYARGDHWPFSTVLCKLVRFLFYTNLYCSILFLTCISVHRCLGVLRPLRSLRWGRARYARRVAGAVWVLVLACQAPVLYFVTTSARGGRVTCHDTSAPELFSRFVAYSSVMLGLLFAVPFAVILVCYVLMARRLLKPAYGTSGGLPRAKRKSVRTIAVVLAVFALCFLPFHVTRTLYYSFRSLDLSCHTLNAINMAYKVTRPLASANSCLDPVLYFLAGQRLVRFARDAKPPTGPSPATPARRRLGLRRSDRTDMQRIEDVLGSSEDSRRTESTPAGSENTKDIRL

[12] = target: T10, P2RY4 (Homo sapiens, UniProt P51582); settings: screen, control agonist; CHO, 37C, 2HR
T10 construct: purchased Eurofins DiscoverX (PathHunter gpcrMAX)
T10 sequence (P51582 whole entry): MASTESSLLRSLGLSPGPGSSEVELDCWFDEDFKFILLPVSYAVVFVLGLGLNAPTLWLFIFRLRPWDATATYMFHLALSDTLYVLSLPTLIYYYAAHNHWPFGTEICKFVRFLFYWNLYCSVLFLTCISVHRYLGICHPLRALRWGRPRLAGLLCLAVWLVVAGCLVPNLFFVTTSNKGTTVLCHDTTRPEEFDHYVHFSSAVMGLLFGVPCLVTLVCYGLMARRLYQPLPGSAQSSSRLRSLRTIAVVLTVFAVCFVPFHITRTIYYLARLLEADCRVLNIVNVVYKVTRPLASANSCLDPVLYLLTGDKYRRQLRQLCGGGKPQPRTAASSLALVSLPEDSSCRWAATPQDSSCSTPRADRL

[13] = target: T11, CALCR (Homo sapiens, UniProt P30988); settings: screen, control agonist; U2OS, 37C, 2HR
T11 construct: purchased Eurofins DiscoverX (PathHunter gpcrMAX)
T11 sequence (P30988 25-474): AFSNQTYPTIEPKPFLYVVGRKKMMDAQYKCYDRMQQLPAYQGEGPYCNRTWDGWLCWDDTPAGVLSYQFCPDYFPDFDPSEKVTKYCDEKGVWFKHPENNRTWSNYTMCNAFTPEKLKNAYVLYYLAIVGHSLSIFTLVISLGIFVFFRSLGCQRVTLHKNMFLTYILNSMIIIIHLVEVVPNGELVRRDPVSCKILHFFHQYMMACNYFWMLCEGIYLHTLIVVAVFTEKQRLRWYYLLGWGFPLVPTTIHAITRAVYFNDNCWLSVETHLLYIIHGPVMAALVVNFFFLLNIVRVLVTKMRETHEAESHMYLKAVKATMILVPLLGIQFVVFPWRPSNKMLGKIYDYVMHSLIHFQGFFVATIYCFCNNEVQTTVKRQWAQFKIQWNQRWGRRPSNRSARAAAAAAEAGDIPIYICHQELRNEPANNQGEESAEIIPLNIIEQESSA

[14] = target: CALCR-RAMP2 (Homo sapiens, UniProt O60895+P30988); settings: control agonist
CALCR-RAMP2, sequence (O60895 43-175 partner, one chain of several): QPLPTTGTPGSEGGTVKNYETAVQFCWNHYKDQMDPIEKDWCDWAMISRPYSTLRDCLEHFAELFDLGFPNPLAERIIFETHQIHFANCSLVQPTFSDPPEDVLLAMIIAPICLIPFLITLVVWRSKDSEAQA

[15] = target: T12, CALCR-RAMP3 (Homo sapiens, UniProt O60896+P30988); settings: screen, control agonist; CHO, RT, 2HR
T12 construct: purchased Eurofins DiscoverX (PathHunter gpcrMAX)
T12 sequence (P30988 25-474): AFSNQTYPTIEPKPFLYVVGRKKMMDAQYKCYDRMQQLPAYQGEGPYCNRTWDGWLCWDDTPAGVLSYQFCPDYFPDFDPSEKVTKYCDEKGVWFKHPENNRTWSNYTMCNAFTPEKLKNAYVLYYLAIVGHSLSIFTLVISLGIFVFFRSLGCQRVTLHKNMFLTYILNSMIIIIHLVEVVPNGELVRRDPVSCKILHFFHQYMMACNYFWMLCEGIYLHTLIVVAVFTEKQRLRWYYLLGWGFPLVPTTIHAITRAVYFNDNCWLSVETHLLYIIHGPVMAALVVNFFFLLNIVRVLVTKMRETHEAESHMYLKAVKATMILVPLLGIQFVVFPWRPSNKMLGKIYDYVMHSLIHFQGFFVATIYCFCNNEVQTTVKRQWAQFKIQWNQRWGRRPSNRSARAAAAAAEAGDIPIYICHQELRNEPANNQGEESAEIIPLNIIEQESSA
T12 sequence (O60896 24-148 partner): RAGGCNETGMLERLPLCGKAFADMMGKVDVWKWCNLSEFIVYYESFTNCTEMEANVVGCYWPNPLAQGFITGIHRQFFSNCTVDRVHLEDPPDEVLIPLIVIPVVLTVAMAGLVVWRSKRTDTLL

[16] = follow-up concentration-response assays

T2 sequence (P47900 whole entry): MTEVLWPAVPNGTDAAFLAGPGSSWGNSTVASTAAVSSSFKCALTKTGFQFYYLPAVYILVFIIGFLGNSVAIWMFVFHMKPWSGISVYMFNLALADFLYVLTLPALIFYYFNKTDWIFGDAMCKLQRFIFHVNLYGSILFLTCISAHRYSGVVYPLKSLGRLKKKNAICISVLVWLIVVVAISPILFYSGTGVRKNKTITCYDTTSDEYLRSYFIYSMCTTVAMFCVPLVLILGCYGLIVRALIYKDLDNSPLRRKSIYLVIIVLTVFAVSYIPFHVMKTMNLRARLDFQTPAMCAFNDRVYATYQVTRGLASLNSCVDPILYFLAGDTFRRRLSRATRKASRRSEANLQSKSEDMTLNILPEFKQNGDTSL
T1 sequence (P43119 whole entry): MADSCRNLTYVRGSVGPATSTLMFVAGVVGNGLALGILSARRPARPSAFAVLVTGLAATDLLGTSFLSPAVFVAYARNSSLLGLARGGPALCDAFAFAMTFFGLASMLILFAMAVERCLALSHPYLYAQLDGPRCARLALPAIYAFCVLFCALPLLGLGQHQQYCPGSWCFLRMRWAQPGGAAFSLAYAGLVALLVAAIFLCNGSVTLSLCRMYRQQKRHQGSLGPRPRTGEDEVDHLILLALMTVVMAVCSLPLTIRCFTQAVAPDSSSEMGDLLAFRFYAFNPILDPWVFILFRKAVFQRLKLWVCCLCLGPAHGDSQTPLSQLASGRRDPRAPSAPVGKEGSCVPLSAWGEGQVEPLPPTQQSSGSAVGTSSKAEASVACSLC

CC#CCC(C)[C@H](O)/C=C/[C@@H]1[C@H]2c3cccc(CCCC(=O)O)c3O[C@H]2C[C@H]1O (mixture of isomers) [Beraprost]
EC80 [1]: 1.7 µM

CSc1nc(N)c2ncn([C@@H]3O[C@H](COP(=O)(O)OP(=O)(O)O)[C@@H](O)[C@H]3O)c2n1 [2-methylthio-ADP]
EC80 [2]: 0.0414 µM
EC80 [3]: 0.00157 µM

CCCCC/C=C\C/C=C\C/C=C\C=C\C(=O)CCCC(=O)O [5-OxoETE]
EC80 [4]: 2.13 µM

Nc1ncnc2c1ncn2[C@@H]1O[C@H](COP(=O)(O)OP(=O)(O)OP(=O)(O)O)[C@@H](O)[C@H]1O [ATP]
EC80 [5]: 1290 µM

O=C(O)CCC/C=C\C[C@@H]1[C@@H](/C=C/[C@@H](O)COc2ccc(I)cc2)[C@H]2CC[C@@H]1O2 [I-BOP]
EC80 [6]: 0.0291 µM

CCCCCCCCCCCCCCCCOC[C@H](COP(=O)([O-])OCC[N+](C)(C)C)OC(C)=O [PAF]
EC80 [7]: 0.019 µM

CCCCC[C@H](O)/C=C/[C@H]1[C@H](O)CC(=O)[C@@H]1C/C=C\CCCC(=O)O [Prostaglandin E2]
EC80 [8, 16]: 0.00475 µM
EC80 ([8]; screen, HEK, 37C, 2HR): 0.00358 µM
EC80 [9]: 3.65 µM

O=c1ccn([C@@H]2O[C@H](COP(=O)(O)OP(=O)(O)OP(=O)(O)O)[C@@H](O)[C@H]2O)c(=O)[nH]1 [UTP]
EC80 [10]: 0.225 µM
EC80 [11]: 2.58 µM
EC80 [12]: 0.93 µM

Calcitonin
EC80 [13]: 0.0377 µM
EC80 [14, 16]: 0.035 µM
EC80 ([14]; screen, CHO, 37C, 2HR): 0.0305 µM
EC80 [15]: 1.15 µM
